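Step 1: Grow cells in 96-well plates. Step 2: Expose to compound for 48 hours at 5 concentrations. Step 3: Interpolate endpoints linearly; if unreached, use highest concentration. GI50: concentration for 50% inhibition of growth. At the TGI there is no net growth.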
Legend:
Assay in all cases: growth of human tumour cells (NCI), 48 h
A498 renal = tested on: A498 renal
ACHN renal = tested on: ACHN renal
BT-549 breast = tested on: BT-549 breast
CCRF-CEM leukemia = tested on: CCRF-CEM leukemia
COLO 205 colon = tested on: COLO 205 colon
DU-145 prostate = tested on: DU-145 prostate
HCC-2998 colon = tested on: HCC-2998 colon
HCT-15 colon = tested on: HCT-15 colon
HL-60(TB) leukemia = tested on: HL-60(TB) leukemia
HOP-92 NSCLC = tested on: HOP-92 NSCLC
IGROV1 ovarian = tested on: IGROV1 ovarian
K-562 leukemia = tested on: K-562 leukemia
KM12 colon = tested on: KM12 colon
M14 melanoma = tested on: M14 melanoma
MCF7 breast = tested on: MCF7 breast
NCI-H226 lung = tested on: NCI-H226 lung
NCI-H460 lung = tested on: NCI-H460 lung
OVCAR-3 ovarian = tested on: OVCAR-3 ovarian
OVCAR-8 ovarian = tested on: OVCAR-8 ovarian
PC-3 prostate = tested on: PC-3 prostate
RPMI-8226 leukemia = tested on: RPMI-8226 leukemia
SK-MEL-2 melanoma = tested on: SK-MEL-2 melanoma
SK-MEL-28 melanoma = tested on: SK-MEL-28 melanoma
SK-MEL-5 melanoma = tested on: SK-MEL-5 melanoma
SK-OV-3 ovarian = tested on: SK-OV-3 ovarian
SN12C renal = tested on: SN12C renal
SNB-75 CNS = tested on: SNB-75 CNS
SR leukemia = tested on: SR leukemia
SW-620 colon = tested on: SW-620 colon
T-47D breast = tested on: T-47D breast
TK-10 renal = tested on: TK-10 renal
786-0 renal = tested on: 786-0 renal
A549 NSCLC = tested on: A549 NSCLC
EKVX NSCLC = tested on: EKVX NSCLC
HCT-116 colon = tested on: HCT-116 colon
HOP-62 NSCLC = tested on: HOP-62 NSCLC
HS 578T breast = tested on: HS 578T breast
HT29 colon = tested on: HT29 colon
LOX IMVI melanoma = tested on: LOX IMVI melanoma
MALME-3M melanoma = tested on: MALME-3M melanoma
MDA-MB-231 breast = tested on: MDA-MB-231 breast
MDA-MB-435 = tested on: MDA-MB-435
NCI-H23 lung = tested on: NCI-H23 lung
NCI-H522 lung = tested on: NCI-H522 lung
NCI/ADR-RES ovarian = tested on: NCI/ADR-RES ovarian
OVCAR-4 ovarian = tested on: OVCAR-4 ovarian
OVCAR-5 ovarian = tested on: OVCAR-5 ovarian
RXF 393 renal = tested on: RXF 393 renal
SF-268 CNS = tested on: SF-268 CNS
SF-295 CNS = tested on: SF-295 CNS
SF-539 CNS = tested on: SF-539 CNS
SNB-19 CNS = tested on: SNB-19 CNS
U251 CNS = tested on: U251 CNS
UACC-257 melanoma = tested on: UACC-257 melanoma
UACC-62 melanoma = tested on: UACC-62 melanoma
UO-31 renal = tested on: UO-31 renal

SMILES: CCN1CCN(Cc2ccc(NC(=O)Nc3ccc(-n4ccc5c(NC(=O)c6ccccc6)nccc54)cc3)cc2C(F)(F)F)CC1
- GI50 (A498 renal): 5170 nM
- TGI (A498 renal): 19100 nM
- GI50 (ACHN renal): 907 nM
- TGI (ACHN renal): 2110 nM
- GI50 (BT-549 breast): 1430 nM
- TGI (BT-549 breast): 2770 nM
- GI50 (CCRF-CEM leukemia): 426 nM
- TGI (CCRF-CEM leukemia): > 100000 nM
- GI50 (COLO 205 colon): 942 nM
- TGI (COLO 205 colon): 2510 nM
- GI50 (DU-145 prostate): 1120 nM
- TGI (DU-145 prostate): 2340 nM
- GI50 (HCC-2998 colon): 1230 nM
- TGI (HCC-2998 colon): 2540 nM
- GI50 (HCT-15 colon): 227 nM
- TGI (HCT-15 colon): 1810 nM
- GI50 (HL-60(TB) leukemia): 1710 nM
- TGI (HL-60(TB) leukemia): 7910 nM
- GI50 (HOP-92 NSCLC): 13300 nM
- TGI (HOP-92 NSCLC): 59600 nM
- GI50 (IGROV1 ovarian): 1420 nM
- TGI (IGROV1 ovarian): 4390 nM
- GI50 (K-562 leukemia): 65.3 nM
- TGI (K-562 leukemia): 1520 nM
- GI50 (KM12 colon): 27.1 nM
- TGI (KM12 colon): 1450 nM
- GI50 (M14 melanoma): 1120 nM
- TGI (M14 melanoma): 2390 nM
- GI50 (MCF7 breast): 756 nM
- TGI (MCF7 breast): 2080 nM
- GI50 (NCI-H226 lung): 1540 nM
- TGI (NCI-H226 lung): 4840 nM
- GI50 (NCI-H460 lung): 81.1 nM
- TGI (NCI-H460 lung): 1450 nM
- GI50 (OVCAR-3 ovarian): 1320 nM
- TGI (OVCAR-3 ovarian): 2630 nM
- GI50 (OVCAR-8 ovarian): 968 nM
- TGI (OVCAR-8 ovarian): 4920 nM
- GI50 (PC-3 prostate): 1160 nM
- TGI (PC-3 prostate): 4680 nM
- GI50 (RPMI-8226 leukemia): 942 nM
- TGI (RPMI-8226 leukemia): > 100000 nM
- GI50 (SK-MEL-2 melanoma): 3620 nM
- TGI (SK-MEL-2 melanoma): > 100000 nM
- GI50 (SK-MEL-28 melanoma): 1620 nM
- TGI (SK-MEL-28 melanoma): 3070 nM
- GI50 (SK-MEL-5 melanoma): 764 nM
- TGI (SK-MEL-5 melanoma): 2020 nM
- GI50 (SK-OV-3 ovarian): 1800 nM
- TGI (SK-OV-3 ovarian): 10500 nM
- GI50 (SN12C renal): 3170 nM
- TGI (SN12C renal): > 20700 nM
- GI50 (SNB-75 CNS): 1370 nM
- TGI (SNB-75 CNS): 2680 nM
- GI50 (SR leukemia): 159 nM
- TGI (SR leukemia): > 100000 nM
- GI50 (SW-620 colon): 513 nM
- TGI (SW-620 colon): 1700 nM
- GI50 (T-47D breast): 3540 nM
- TGI (T-47D breast): 15900 nM
- GI50 (TK-10 renal): 1500 nM
- TGI (TK-10 renal): > 100000 nM

SMILES: Cc1ccc(C(=O)/C(=C/c2ccc([N+](=O)[O-])cc2)S(=O)Cc2ccccc2)cc1 (configuration not stated)
- GI50 (786-0 renal): 1440 nM
- TGI (786-0 renal): 2810 nM
- GI50 (A498 renal): 1750 nM
- TGI (A498 renal): 3400 nM
- GI50 (A549 NSCLC): 2260 nM
- TGI (A549 NSCLC): 5660 nM
- GI50 (ACHN renal): 1560 nM
- TGI (ACHN renal): 2920 nM
- GI50 (BT-549 breast): 1790 nM
- TGI (BT-549 breast): 3490 nM
- GI50 (CCRF-CEM leukemia): 396 nM
- TGI (CCRF-CEM leukemia): > 100000 nM
- GI50 (COLO 205 colon): 1470 nM
- TGI (COLO 205 colon): 3160 nM
- GI50 (DU-145 prostate): 1340 nM
- TGI (DU-145 prostate): 2690 nM
- GI50 (EKVX NSCLC): 1600 nM
- TGI (EKVX NSCLC): 3130 nM
- GI50 (HCC-2998 colon): 1780 nM
- TGI (HCC-2998 colon): 3290 nM
- GI50 (HCT-116 colon): 1570 nM
- TGI (HCT-116 colon): 2990 nM
- GI50 (HCT-15 colon): 1070 nM
- TGI (HCT-15 colon): 2590 nM
- GI50 (HL-60(TB) leukemia): 1590 nM
- TGI (HL-60(TB) leukemia): 5810 nM
- GI50 (HOP-62 NSCLC): 2020 nM
- TGI (HOP-62 NSCLC): 4460 nM
- GI50 (HOP-92 NSCLC): 1410 nM
- TGI (HOP-92 NSCLC): 3220 nM
- GI50 (HS 578T breast): 2580 nM
- TGI (HS 578T breast): 8870 nM
- GI50 (HT29 colon): 1000 nM
- TGI (HT29 colon): 2440 nM
- GI50 (IGROV1 ovarian): 1420 nM
- TGI (IGROV1 ovarian): 3290 nM
- GI50 (K-562 leukemia): 623 nM
- TGI (K-562 leukemia): 12400 nM
- GI50 (KM12 colon): 1560 nM
- TGI (KM12 colon): 3400 nM
- GI50 (LOX IMVI melanoma): 417 nM
- TGI (LOX IMVI melanoma): 1670 nM
- GI50 (M14 melanoma): 1480 nM
- TGI (M14 melanoma): 2940 nM
- GI50 (MALME-3M melanoma): 1690 nM
- TGI (MALME-3M melanoma): 3540 nM
- GI50 (MCF7 breast): 372 nM
- TGI (MCF7 breast): 2200 nM
- GI50 (MDA-MB-231 breast): 1190 nM
- TGI (MDA-MB-231 breast): 2770 nM
- GI50 (MDA-MB-435): 1470 nM
- TGI (MDA-MB-435): 3040 nM
- GI50 (NCI-H226 lung): 1710 nM
- TGI (NCI-H226 lung): 4720 nM
- GI50 (NCI-H23 lung): 1860 nM
- TGI (NCI-H23 lung): 5250 nM
- GI50 (NCI-H460 lung): 1830 nM
- TGI (NCI-H460 lung): 4920 nM
- GI50 (NCI-H522 lung): 1460 nM
- TGI (NCI-H522 lung): 2900 nM
- GI50 (NCI/ADR-RES ovarian): 2460 nM
- TGI (NCI/ADR-RES ovarian): > 100000 nM
- GI50 (OVCAR-3 ovarian): 1280 nM
- TGI (OVCAR-3 ovarian): 2570 nM
- GI50 (OVCAR-4 ovarian): 1350 nM
- TGI (OVCAR-4 ovarian): 2780 nM
- GI50 (OVCAR-5 ovarian): 1690 nM
- TGI (OVCAR-5 ovarian): 3610 nM
- GI50 (OVCAR-8 ovarian): 1360 nM
- TGI (OVCAR-8 ovarian): 3230 nM
- GI50 (PC-3 prostate): 1350 nM
- TGI (PC-3 prostate): 2950 nM
- GI50 (RPMI-8226 leukemia): 404 nM
- TGI (RPMI-8226 leukemia): 2350 nM
- GI50 (RXF 393 renal): 1470 nM
- TGI (RXF 393 renal): 3000 nM
- GI50 (SF-268 CNS): 1710 nM
- TGI (SF-268 CNS): 3720 nM
- GI50 (SF-295 CNS): 2450 nM
- TGI (SF-295 CNS): 5960 nM
- GI50 (SF-539 CNS): 1690 nM
- TGI (SF-539 CNS): 3100 nM
- GI50 (SK-MEL-2 melanoma): 1570 nM
- TGI (SK-MEL-2 melanoma): 3260 nM
- GI50 (SK-MEL-28 melanoma): 1660 nM
- TGI (SK-MEL-28 melanoma): 3150 nM
- GI50 (SK-MEL-5 melanoma): 1600 nM
- TGI (SK-MEL-5 melanoma): 2990 nM
- GI50 (SK-OV-3 ovarian): 3460 nM
- TGI (SK-OV-3 ovarian): 12500 nM
- GI50 (SN12C renal): 1710 nM
- TGI (SN12C renal): 3400 nM
- GI50 (SNB-19 CNS): 1550 nM
- TGI (SNB-19 CNS): 3070 nM
- GI50 (SNB-75 CNS): 1270 nM
- TGI (SNB-75 CNS): 2730 nM
- GI50 (SR leukemia): 539 nM
- TGI (SR leukemia): 5210 nM
- GI50 (SW-620 colon): 916 nM
- TGI (SW-620 colon): 2940 nM
- GI50 (TK-10 renal): 1780 nM
- TGI (TK-10 renal): 3260 nM
- GI50 (U251 CNS): 1020 nM
- TGI (U251 CNS): 2240 nM
- GI50 (UACC-257 melanoma): 1650 nM
- TGI (UACC-257 melanoma): 3080 nM
- GI50 (UACC-62 melanoma): 1300 nM
- TGI (UACC-62 melanoma): 2790 nM
- GI50 (UO-31 renal): 1170 nM
- TGI (UO-31 renal): 2550 nM

Source: PubChem BioAssay (NCI)
